Experimental data from PMC9114115, “Property space mapping of Pseudomonas aeruginosa permeability to small molecules” (Scientific Reports, 2022).
“And” between values parts separate entries of the source, which are not always exact repeats. Equal values may be shown once. Where a name gives a salt, the structure may show the parent alone.

System: P. aeruginosa PAO1-Pore
Assay: MIC by two-fold dilution, hyperporinated PAO1-Pore
Assay type: cell-based, Pseudomonas aeruginosa
Conditions: PAO1-Pore, LB broth, Table S2
Experimental: (§1) In all experiments, P. aeruginosa PAO1-Pore (PAO1 attTn7::PLAC-fhuA) and PΔ3-Pore (ΔmexAB ΔmexCD ΔmexXY attTn7::PLAC-fhuA) strains were used[29]. Strains were routinely grown in Luria–Bertani (LB) or MOPS-M9 medium at 37 °C with aeration. MICs shown in Tables 1 and 2 were determined by a two-fold dilution method in LB broth and MOPS-M9 medium, respectively, following the previously described protocol.

| SMILES | MICs |
| --- | --- |
| CN1CCN(c2cc3c(cc2F)c(=O)c(C(=O)O)cn3-c2ccc(F)cc2)CC1 [OU-0000624, DIFLOXACIN] | 0.39 |
| COc1c(N2C[C@@H]3CCCN[C@@H]3C2)c(F)cc2c(=O)c(C(=O)O)cn(C3CC3)c12 [OU-0000626, MOXIFLOXACIN HYDROCHLORIDE] | 0.39 |
| CC1CCc2c(N3CCC(O)CC3)c(F)cc3c(=O)c(C(=O)O)cn1c23 (stereo not drawn) [OU-0000628, nadifloxacin] | 0.39 |

Same assay, conditions: Pseudomonas aeruginosa, PAO1, read-out: MICs

| SMILES | MIC |
| --- | --- |
| CN1CCN(c2cc3c(cc2F)c(=O)c(C(=O)O)cn3-c2ccc(F)cc2)CC1 [OU-0000624, DIFLOXACIN] | 0.0625 µM and 0.03 µg/mL |
| COc1c(N2C[C@@H]3CCCN[C@@H]3C2)c(F)cc2c(=O)c(C(=O)O)cn(C3CC3)c12 [OU-0000626, MOXIFLOXACIN HYDROCHLORIDE] | 0.03 µg/mL |
| CC1CCc2c(N3CCC(O)CC3)c(F)cc3c(=O)c(C(=O)O)cn1c23 (stereo not drawn) [OU-0000628, nadifloxacin] | 0.0625 µM and 0.02 µg/mL |

System: P. aeruginosa PAO1 cells
Assay: LC–MS quantification of intracellular accumulation, PAO1;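 also: slope of accumulation versus external concentration fitted as a line through zero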
Conditions: 1 min incubation, 10-80 µM
Experimental: (§2) PAO1-Pore and PΔ3-Pore were grown at 37 °C overnight with shaking at 225 rpm in 50 mM MOPS-M9 (pH 7.2) Minimal Medium supplemented with 1% glycerol[42],[43].
(§3) The next day, cells were sub-cultured (1.5:100) in fresh MOPS-M9 medium and grown for 16 h. The cultures were then split into two flasks and one of them was induced with 0.1 mM IPTG. Cells incubated for additional 4 h until OD600 reached ~ 1.0 and harvested by centrifugation at 3,275xg for 20 min in RT, washed and concentrated 10X in the spent medium. Assays were performed in 96-well plates in a final volume of […]. Cells were incubated with 10, 20, 40, 80 µM of compounds and after 1- and 40-min incubation at RT, 100 µL cell aliquots were collected by vacuum filtration onto 1.0 µm Glass Fiber Type B filters. For no-cell controls, compounds were diluted to 10, 20, 40, 80 µM final concentration in the same medium, incubated for 1 min and 40 min and filtered onto the same plates. The cell loaded and cell-free filters were dried, removed from plates and placed into 100% methanol at -80 °C for at least 10 min. Filter-bound material was extracted by water bath sonication for 1 min. Cell and filter debris were separated by ultracentrifugation at 45,000 rpm (TLA55 rotor, Beckman) for 8 min at 16 °C and the pellet re-extracted with 80% methanol in water by sonication for 15 min followed by ultracentrifugation at the same conditions. Supernatants from two extractions were combined. For the compound quantification, 5 µL of solution was analyzed in triplicate.
(§4) Calibration curves for MS analyses of compounds were generated in the same experiment by mixing compound at increasing concentrations with the sonicated PAO1 cell extracts. […] Azithromycin was used as a positive control in all experiments.
(§5) Samples were processed in positive ion mode. An Eclipse plus C18 Rapid Resolution HD column (1.8 μm, 2.1 × 50 mm, Agilent, USA) was used for separation. The flow rate was 0.6 mL/min using the following gradient: 0 to 1 min (0- 20% ACN), 1 to 4 min (20- 80% ACN), 4 to 5.1 min (80–100% ACN), 5.1 to 6.30 (100% ACN). Solvents contained 0.1% formic acid to promote positive ion formation in the electrospray. […] Data were analyzed using Agilent Masshunter workstation quantitative analysis v. B.10 software.

| SMILES | Concentration slopes of accumulation, PAO1_1 min |
| --- | --- |
| CN1CCN(c2cc3c(cc2F)c(=O)c(C(=O)O)cn3-c2ccc(F)cc2)CC1 [OU-0000624, DIFLOXACIN] | 3.78 |
| COc1c(N2C[C@@H]3CCCN[C@@H]3C2)c(F)cc2c(=O)c(C(=O)O)cn(C3CC3)c12 [OU-0000626, MOXIFLOXACIN HYDROCHLORIDE] | 1.19 |
| CC1CCc2c(N3CCC(O)CC3)c(F)cc3c(=O)c(C(=O)O)cn1c23 (stereo not drawn) [OU-0000628, nadifloxacin] | 6.36 |

Same assay, conditions: 40 min incubation, 10-80 µM

| SMILES | Concentration slopes of accumulation, PAO1_40 min |
| --- | --- |
| CN1CCN(c2cc3c(cc2F)c(=O)c(C(=O)O)cn3-c2ccc(F)cc2)CC1 [OU-0000624, DIFLOXACIN] | 6.48 |
| COc1c(N2C[C@@H]3CCCN[C@@H]3C2)c(F)cc2c(=O)c(C(=O)O)cn(C3CC3)c12 [OU-0000626, MOXIFLOXACIN HYDROCHLORIDE] | 2.06 |
| CC1CCc2c(N3CCC(O)CC3)c(F)cc3c(=O)c(C(=O)O)cn1c23 (stereo not drawn) [OU-0000628, nadifloxacin] | 6.93 |

System: P. aeruginosa PΔ3-Pore
Assay: MIC by two-fold dilution, barrierless PΔ3-Pore
Assay type: cell-based, Pseudomonas aeruginosa
Conditions: Pseudomonas aeruginosa, read-out: MICs, P∆3-Pore, MOPS-M9 medium
Experimental: as §1

| SMILES | MIC |
| --- | --- |
| CN1CCN(c2cc3c(cc2F)c(=O)c(C(=O)O)cn3-c2ccc(F)cc2)CC1 [OU-0000624, DIFLOXACIN] | 0.0313 µM and 0.01 µg/mL |
| COc1c(N2C[C@@H]3CCCN[C@@H]3C2)c(F)cc2c(=O)c(C(=O)O)cn(C3CC3)c12 [OU-0000626, MOXIFLOXACIN HYDROCHLORIDE] | 0.0313 µM and 0.01 µg/mL |
| CC1CCc2c(N3CCC(O)CC3)c(F)cc3c(=O)c(C(=O)O)cn1c23 (stereo not drawn) [OU-0000628, nadifloxacin] | 0.0156 µM and 0.01 µg/mL |

Same assay, conditions: P∆3-Pore, LB broth, Table S2

| SMILES | MICs |
| --- | --- |
| CN1CCN(c2cc3c(cc2F)c(=O)c(C(=O)O)cn3-c2ccc(F)cc2)CC1 [OU-0000624, DIFLOXACIN] | 0.097 |
| COc1c(N2C[C@@H]3CCCN[C@@H]3C2)c(F)cc2c(=O)c(C(=O)O)cn(C3CC3)c12 [OU-0000626, MOXIFLOXACIN HYDROCHLORIDE] | 0.024 |
| CC1CCc2c(N3CCC(O)CC3)c(F)cc3c(=O)c(C(=O)O)cn1c23 (stereo not drawn) [OU-0000628, nadifloxacin] | 0.0015 |

System: P. aeruginosa PΔ3
Assay: microbe, parasite or virus in culture
Assay type: cell-based, Pseudomonas aeruginosa
Conditions: Pseudomonas aeruginosa, read-out: MICs
Experimental: as §1

| SMILES | MIC |
| --- | --- |
| CN1CCN(c2cc3c(cc2F)c(=O)c(C(=O)O)cn3-c2ccc(F)cc2)CC1 [OU-0000624, DIFLOXACIN] | 0.313 µM and 0.14 µg/mL |
| COc1c(N2C[C@@H]3CCCN[C@@H]3C2)c(F)cc2c(=O)c(C(=O)O)cn(C3CC3)c12 [OU-0000626, MOXIFLOXACIN HYDROCHLORIDE] | 0.27 µg/mL |
| CC1CCc2c(N3CCC(O)CC3)c(F)cc3c(=O)c(C(=O)O)cn1c23 (stereo not drawn) [OU-0000628, nadifloxacin] | 0.625 µM and 0.23 µg/mL |

System: P. aeruginosa PΔ3-Pore cells
Assay: LC–MS quantification of intracellular accumulation, PΔ3-Pore;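 also: slope of accumulation versus external concentration fitted as a line through zero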
Conditions: 1 min incubation, 10-80 µM
Experimental: as §2, §3, §4, §5

| SMILES | Concentration slopes of accumulation, PΔ3-Pore_1 min |
| --- | --- |
| CN1CCN(c2cc3c(cc2F)c(=O)c(C(=O)O)cn3-c2ccc(F)cc2)CC1 [OU-0000624, DIFLOXACIN] | 6.73 |
| COc1c(N2C[C@@H]3CCCN[C@@H]3C2)c(F)cc2c(=O)c(C(=O)O)cn(C3CC3)c12 [OU-0000626, MOXIFLOXACIN HYDROCHLORIDE] | 2.26 |
| CC1CCc2c(N3CCC(O)CC3)c(F)cc3c(=O)c(C(=O)O)cn1c23 (stereo not drawn) [OU-0000628, nadifloxacin] | 19.74 |

Same assay, conditions: 40 min incubation, 10-80 µM

| SMILES | Concentration slopes of accumulation, PΔ3-Pore_40min |
| --- | --- |
| CN1CCN(c2cc3c(cc2F)c(=O)c(C(=O)O)cn3-c2ccc(F)cc2)CC1 [OU-0000624, DIFLOXACIN] | 8.21 |
| COc1c(N2C[C@@H]3CCCN[C@@H]3C2)c(F)cc2c(=O)c(C(=O)O)cn(C3CC3)c12 [OU-0000626, MOXIFLOXACIN HYDROCHLORIDE] | 4.78 |
| CC1CCc2c(N3CCC(O)CC3)c(F)cc3c(=O)c(C(=O)O)cn1c23 (stereo not drawn) [OU-0000628, nadifloxacin] | 19.09 |

System: P. aeruginosa PAO1
Assay: MIC by two-fold dilution, wild type PAO1
Assay type: cell-based, Pseudomonas aeruginosa
Conditions: Pseudomonas aeruginosa; PAO1, MOPS-M9 medium; read-out: MICs
Experimental: as §1

| SMILES | MIC |
| --- | --- |
| CN1CCN(c2cc3c(cc2F)c(=O)c(C(=O)O)cn3-c2ccc(F)cc2)CC1 [OU-0000624, DIFLOXACIN] | 2.5 µM and 1.1 µg/mL |
| COc1c(N2C[C@@H]3CCCN[C@@H]3C2)c(F)cc2c(=O)c(C(=O)O)cn(C3CC3)c12 [OU-0000626, MOXIFLOXACIN HYDROCHLORIDE] | 2.5 µM and 1.1 µg/mL |
| CC1CCc2c(N3CCC(O)CC3)c(F)cc3c(=O)c(C(=O)O)cn1c23 (stereo not drawn) [OU-0000628, nadifloxacin] | 5 µM and 1.8 µg/mL |

System: P. aeruginosa PΔ3 cells;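 also: slope of accumulation versus external concentration fitted as a line through zero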
Assay: not given
Conditions: 1 min incubation, 10-80 µM
Experimental: as §2, §3, §4, §5

| SMILES | Concentration slopes of accumulation, PΔ3_1 min |
| --- | --- |
| CN1CCN(c2cc3c(cc2F)c(=O)c(C(=O)O)cn3-c2ccc(F)cc2)CC1 [OU-0000624, DIFLOXACIN] | 4.42 |
| COc1c(N2C[C@@H]3CCCN[C@@H]3C2)c(F)cc2c(=O)c(C(=O)O)cn(C3CC3)c12 [OU-0000626, MOXIFLOXACIN HYDROCHLORIDE] | 1.39 |
| CC1CCc2c(N3CCC(O)CC3)c(F)cc3c(=O)c(C(=O)O)cn1c23 (stereo not drawn) [OU-0000628, nadifloxacin] | 9.00 |

Same assay, conditions: 40 min incubation, 10-80 µM

| SMILES | Concentration slopes of accumulation, PΔ3_40 min |
| --- | --- |
| CN1CCN(c2cc3c(cc2F)c(=O)c(C(=O)O)cn3-c2ccc(F)cc2)CC1 [OU-0000624, DIFLOXACIN] | 5.02 |
| COc1c(N2C[C@@H]3CCCN[C@@H]3C2)c(F)cc2c(=O)c(C(=O)O)cn(C3CC3)c12 [OU-0000626, MOXIFLOXACIN HYDROCHLORIDE] | 2.61 |
| CC1CCc2c(N3CCC(O)CC3)c(F)cc3c(=O)c(C(=O)O)cn1c23 (stereo not drawn) [OU-0000628, nadifloxacin] | 9.79 |

System: P. aeruginosa PAO1-Pore cells
Assay: LC–MS quantification of intracellular accumulation, PAO1-Pore;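 also: slope of accumulation versus external concentration fitted as a line through zero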
Conditions: 1 min incubation, 10-80 µM
Experimental: as §2, §3, §4, §5

| SMILES | Concentration slopes of accumulation, PAO1-Pore_1 min |
| --- | --- |
| CN1CCN(c2cc3c(cc2F)c(=O)c(C(=O)O)cn3-c2ccc(F)cc2)CC1 [OU-0000624, DIFLOXACIN] | 8.04 |
| COc1c(N2C[C@@H]3CCCN[C@@H]3C2)c(F)cc2c(=O)c(C(=O)O)cn(C3CC3)c12 [OU-0000626, MOXIFLOXACIN HYDROCHLORIDE] | 3.02 |
| CC1CCc2c(N3CCC(O)CC3)c(F)cc3c(=O)c(C(=O)O)cn1c23 (stereo not drawn) [OU-0000628, nadifloxacin] | 11.41 |

Same assay, conditions: 40 min incubation, 10-80 µM

| SMILES | Concentration slopes of accumulation, PAO1-Pore_40 min |
| --- | --- |
| CN1CCN(c2cc3c(cc2F)c(=O)c(C(=O)O)cn3-c2ccc(F)cc2)CC1 [OU-0000624, DIFLOXACIN] | 11.39 |
| COc1c(N2C[C@@H]3CCCN[C@@H]3C2)c(F)cc2c(=O)c(C(=O)O)cn(C3CC3)c12 [OU-0000626, MOXIFLOXACIN HYDROCHLORIDE] | 7.25 |
| CC1CCc2c(N3CCC(O)CC3)c(F)cc3c(=O)c(C(=O)O)cn1c23 (stereo not drawn) [OU-0000628, nadifloxacin] | 12.74 |
